Patent US9340506B2, “Acetamide derivatives as glucokinase activators, their process and medicinal applications” (ADVINUS THERAPEUTICS LIMITED, priority 2007, dated 2016)
pEC50: −log10 of the molar value.

Assays:
[1] = target: purified human recombinant GK (Homo sapiens (Human), UniProt P35557); assay: Glucokinase activity assay (coupled enzymatic, G6PD/NADH absorbance at 340 nm); format: biochemical; settings: for pEC50: EC50 of % change in S0.5 of glucokinase for glucose, sigmoidal fit, read-out: EC50 (with respect to % ΔS0.5); for Emax: Emax of % change in S0.5 of glucokinase for glucose, vehicle S0.5 = 0%, 0 mM glucose = 100%, read-out: % Emax (with respect to % ΔS0.5)
purified human recombinant GK, sequence (P35557 whole entry): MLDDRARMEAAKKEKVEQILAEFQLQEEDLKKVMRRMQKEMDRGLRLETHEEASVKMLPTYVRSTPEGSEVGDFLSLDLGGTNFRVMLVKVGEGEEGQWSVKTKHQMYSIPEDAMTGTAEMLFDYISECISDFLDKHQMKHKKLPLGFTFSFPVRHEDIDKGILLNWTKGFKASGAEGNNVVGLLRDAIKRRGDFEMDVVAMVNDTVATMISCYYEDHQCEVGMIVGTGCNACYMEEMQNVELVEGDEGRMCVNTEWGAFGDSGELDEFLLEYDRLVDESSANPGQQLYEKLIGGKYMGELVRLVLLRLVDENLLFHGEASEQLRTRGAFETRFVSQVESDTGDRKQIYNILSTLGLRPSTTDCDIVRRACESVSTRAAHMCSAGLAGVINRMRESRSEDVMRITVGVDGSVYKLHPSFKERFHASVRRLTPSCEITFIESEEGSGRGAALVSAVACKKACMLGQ
Source text: The glucokinase (GK) assay is a coupled enzymatic assay. GK catalyzes the first step of glycolysis, the conversion of glucose to glucose-6-phosphate (G6P) in the presence of ATP. G6P in turn is converted by glucose-6-phosphate dehydrogenase (G6PD) to 6-phosphogluconate, a process that requires NAD, resulting in NADH formation. Since the GK-catalyzed step is the rate-limiting step of this coupled enzymatic process, the rate of accumulation of 6-phosphogluconate and NADH is directly proportional to the rate of glucose phosphorylation by GK. The rate of the GK-catalyzed reaction can therefore be measured by monitoring the increase in NADH absorbance at 340 nm.
The assay is carried out according to the protocol outlined in Hariharan et al (1997), Diabetes 46: 11-16. Briefly, the test compounds are incubated in a reaction mix containing 25 mM HEPES (pH 7.2), 10 mM MgCl2, 100 mM KCl, 5 mM ATP, 2 mM DTT, 0.5 mM NAD, 1 U/mL Leuconostoc mesenteroides G6PD, 0.3 U/mL of purified human recombinant GK, and different concentrations of glucose. Enzymatic activity is calculated from the initial reaction velocity, measured from the change in NADH absorbance as a function of time.
Compounds described in formula (I), in concentration ranges from 1.0 nM to 500 μM, are tested in the purified human recombinant glucokinase assay described above.
A compound is considered to be a glucokinase activator if it, in its testable range of concentrations, yields a higher rate of glucose phosphorylation than in its absence at a particular glucose concentration, for example at 5 mM glucose.
Compounds of general formula (I) are tested in the in vitro GK enzymatic assay to monitor dose-dependent effect on glucokinase activation (in kinetic mode), as described above, at various glucose concentrations. The S0.5 of glucokinase for glucose at different concentration of each compound of interest is calculated from the following modified version of the Michaelis-Menten equation, V=Vmax [S]^n/(S0.5^n+[S]^n), where [S] is the glucose concentration and n is the Hill coefficient (taken as 1.7 to account for the sigoidal kinetics of glucokinase with respect to glucose). The S0.5 is plotted against the log of the compound concentration. The change in the S0.5 of glucokinase (ΔS0.5) for glucose is calculated by subtracting the S0.5 at each concentration of the compound from the S0.5 in the vehicle control. The ΔS0.5 is then normalized to a percent scale, where the S0.5 in the vehicle control is set to 0% and 0 mM glucose is set to 100%. The % ΔS0.5 is then plotted against the log of the compound concentration. The EC50 and Emax of % change in S0.5 is obtained from the sigoidal fit of the data. Detailed protocol has been described in our copending application no. 409/CHE/2007 which is incorporated herein by reference. Characterization data of some representative glucokinase activators of the present disclosure, which are illustrative but not limiting, are given in table I below.

primary rat hepatocytes = assay: Glycogen synthesis in primary rat hepatocytes; format: cell-based; settings: Hepatocyte, 10 μM concentration, primary hepatocytes from male Wistar rats, D-[U14C]-glucose, 3 hours, read-out: Glycogen synthesis, fold increase over DMSO control
Procedure: The glycogen deposition assay was carried out with few modifications in the original protocol as described in “Biochem J. 1990 Feb. 15; 266(1): 91-102”. In brief, primary hepatocytes were collected from male Wistar rats, and were seeded in a 48-well plate at a density of 150,000 cells/well in Minimal Essential Medium (MEM) containing 10% foetal calf serum (FCS) 100 nM insulin and 10 nM dexamethasone. followed by incubation for 4 hours at 37° C. The medium was replaced with fresh MEM containing 10% FCS and 10 nM dexamethasone and the cells were further incubated for 16 hours at 37° C. Following day, the medium was replaced with fresh MEM (serum-free) containing 2 μCi/ml of D-[U^14C]-glucose in the presence of the test compound. Hepatocytes were incubated for 3 hours at 37° C. followed by washing with 150 mM NaCl. Cells were lysed with 0.1 N NaOH, and the lysate was precipitated with 80% w/v trichloroacetic acid (TCA). Cell debris was pelleted by centrifugation, the supernatant was removed, and the glycogen was precipitated with 66% ethanol followed by drying overnight. Samples were dissolved in MiliQ water and transferred to 96 well reading plate, 100 μL scintillant was added per well and the plate was read in scintillation counter (MicroBeta Trilux, Perkin Elmer). Data was expressed as fold increase in glycogen synthesis over DMSO control (untreated hepatocytes).

[2] = animal efficacy models; PSN-GK1 at higher dose; cited from earlier work

Row | pEC50 [1] | Emax [1] [%] | Compound | fold induction at 10 µM (primary rat hepatocytes) | Hypoglycemia in animal studies [2]
1 | 7.06 | 97 | Cc1cc(Oc2cnc(NC(=O)C(OC3CCOCC3)c3ccc(S(=O)(=O)C4CC4)cc3)s2)ccc1C(=O)O (single isomer, unassigned; (+)) [Example G1A, (+)4-[2-[[2-(4-cyclopropylsulfonylphenyl)-2-tetrahydropyran-4-yloxy-acetyl]amino]thiazol-5-yl]oxy-2-methyl-benzoic acid] | > 2.5 | 
2 | 6.72 |  | O=C(O)c1cccc(Oc2cnc(NC(=O)C(OC3CCOCC3)c3ccc(S(=O)(=O)C4CC4)cc3)s2)c1 (single isomer, unassigned; (+)) [Example G8A, (+)3-[2-[[2-(4-cyclopropylsulfonylphenyl)-2-tetrahydropyran-4-yloxy-acetyl]amino]thiazol-5-yl]oxybenzoic acid] | > 2.5 | 
3 | 6.57 | 92 | COc1cc(Oc2cnc(NC(=O)C(OC3CCOCC3)c3ccc(S(=O)(=O)C4CC4)cc3)s2)ccc1C(=O)O (single isomer, unassigned; (+)) [Example G9A, (+)4-[2-[[2-(4-cyclopropylsulfonylphenyl)-2-tetrahydropyran-4-yloxy-acetyl]amino]thiazol-5-yl]oxy-2-methoxy-benzoic acid] | > 2.5 | 
4 | 6.64 | 93 | Cc1ccc(Oc2cnc(NC(=O)C(OC3CCOCC3)c3ccc(S(=O)(=O)C4CC4)cc3)s2)cc1C(=O)O (single isomer, unassigned; (+)) [Example G10A, (+)5-[2-[[2-(4-cyclopropylsulfonylphenyl)-2-tetrahydropyran-4-yloxy-acetyl]amino]thiazol-5-yl]oxy-2-methyl-benzoic acid] | > 2.5 | 
5 | 6.57 | 93 | O=C(O)c1cc(Oc2cnc(NC(=O)C(OC3CCOCC3)c3ccc(S(=O)(=O)C4CC4)cc3)s2)ccc1F (single isomer, unassigned; (+)) [Example G16A, (+)5-[2-[[2-(4-cyclopropylsulfonylphenyl)-2-tetrahydropyran-4-yloxy-acetyl]amino]thiazol-5-yl]oxy-2-fluoro-benzoic acid] | > 2.5 | 
6 | 7.19 | 93 | O=C(Nc1ncc(Oc2cccc(CO)c2)s1)C(OC1CCOCC1)c1ccc(S(=O)(=O)C2CC2)cc1 (single isomer, unassigned; (+)) [Example G20A, (+)2-(4-cyclopropylsulfonylphenyl)-N-[5-[3-(hydroxymethyl)phenoxy]thiazol-2-yl]-2-tetrahydro-pyran-4-yloxy-acetamide] | > 2.5 | 
7 |  |  | O=C(O)c1cccc(Oc2cnc(NC(=O)C(O[C@@H]3CCOC3)c3ccc(S(=O)(=O)C4CC4)cc3)s2)c1 (single isomer, unassigned; (+)) [Example G21A] | > 2.5 | 
8 | 6.70 | 95 | O=C(O)c1cccc(Oc2cnc(NC(=O)C(O[C@H]3CCOC3)c3ccc(S(=O)(=O)C4CC4)cc3)s2)c1 (single isomer, unassigned; (+)) [Example G25A] | > 2.5 | 
9 | 6.74 | 94 | O=C(O)c1cccc(Oc2cnc(NC(=O)C(OC3CCOCC3)c3ccc(S(=O)(=O)C4CCCC4)cc3)s2)c1 (single isomer, unassigned; (+)) [Example G26A, (+)-3-[2-[[2-(4-cyclopentylsulfonylphenyl)-2-tetrahydropyran-4-yloxy-acetyl]amino]thiazol-5-yl]oxybenzoic acid] | > 2.5 | 
10 | 6.89 | 95 | O=C(O)c1cccc(Oc2cnc(NC(=O)C(OC3CCOCC3)c3ccc(S(=O)(=O)C4CCCC4)nc3)s2)c1 (single isomer, unassigned; (+)) [Example G27A, (+)-3-[2-[[2-(6-cyclopentylsulfonyl-3-pyridyl)-2-tetrahydropyran-4-yloxy-acetyl]amino]thiazol-5-yl]oxybenzoic acid] | > 2.5 | 
11 | 6.32 | 90 | O=C(O)c1ccc(NC(=O)C(Oc2ccc(F)cc2F)c2ccc(S(=O)(=O)C3CC3)cc2)nc1 (single isomer, unassigned; (-)) [Example G15A, (−)6-[[2-(4-cyclopropylsulfonylphenyl)-2-(2,4-difluorophenoxy)acetyl]amino]pyridine-3-carboxylic acid] | > 2.5 | 
12 | 6.89 | 94 | O=C(NC1CC1)c1ccc(Oc2cnc(NC(=O)C(OC3CCOCC3)c3ccc(S(=O)(=O)C4CC4)cc3)s2)cc1 (stereo not shown) [Example C3, N-Cyclopropyl-4-[2-[[2-(4-cyclopropylsulfonylphenyl)-2-tetrahydropyran-4-yloxy-acetyl]amino]thiazol-5-yl]oxy-benzamide] |  | 
13 | 6.85 | 92 | O=C(Nc1ncc(Oc2cccc(CO)c2)s1)C(OC1CCOCC1)c1ccc(S(=O)(=O)C2CC2)cc1 (stereo not shown) [Example D3, 2-(4-cyclopropylsulfonylphenyl)-N-[5-[3-(hydroxymethyl)phenoxy]thiazol-2-yl]-2-tetrahydropyran-4-yloxy-acetamide] |  | 
14 | 5.82 | 93 | O=C(Nc1nc2ccc(C(O)CO)nc2s1)C(OC1CCOCC1)c1ccc(S(=O)(=O)C2CC2)cc1 (stereo not shown) [Example E2, 2-(4-Cyclopropanesulfonyl-phenyl)-N-[5-(1,2-dihydroxy-ethyl)-thiazolo[5,4-b]pyridin-2-yl]-2-(tetrahydro-pyran-4-yloxy)-acetamide] |  | 
15 | 5.92 | 88 | O=C(Nc1ncc(C(O)CO)s1)C(Oc1ccc(F)cc1F)c1ccc(S(=O)(=O)C2CC2)cc1 (stereo not shown) [Example E3, 2-(4-cyclopropylsulfonylphenyl)-2-(2,4-difluorophenoxy)-N-[5-(1,2-dihydroxyethyl)thiazol-2-yl]acetamide] |  | 
16 |  |  | O=C(Nc1ncc(F)s1)[C@H](CC1CCOCC1)c1ccc(S(=O)(=O)C2CC2)cc1 [PSN-GK1] |  | hypoglycemic potential
17 |  |  | Ro-28-1675 |  | cause hypoglycemia
